Assay results as given in PubChem BioAssay AID2060883 (Molecular Pharmacology Branch, DTP, NCI, 2025).
pIC50: −log10 of the molar value. Where “and” joins values, the source holds several entries; their conditions need not be identical. Equal entries are not always repeated.

Tested on: 843782-103-R-J1-PDC complex spheroid viability
Assay: Anticancer human tumor 843782-103-R-J1-PDC patient-derived lung adenocarcinoma cell line growth inhibition [RAS]
Settings: for viability, T/C: stronger effect = lower value
Summary of the method: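 Multi-cell-type spheroids: tumor cells plus HUVEC endothelial cells and mesenchymal stem cells. RAS-pathway inhibitors were combined with targeted agents, each dosed in half-log steps down from clinical Cmax, or from 10 microM when Cmax was unknown.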

[1] = curve of first compound, second compound 0.000949 µM
[2] = curve of first compound, second compound 0.003 µM
[3] = curve of first compound, second compound 0.00949 µM
[4] = curve of first compound, second compound 0.03 µM
[5] = curve of first compound, second compound 0.0949 µM
[6] = curve of first compound, second compound 0.3 µM
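Further: viability read after seven days of compound exposure.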

CCc1c2c(nc3ccc(O)cc13)-c1cc3c(c(=O)n1C2)COC(=O)[C@]3(O)CC + CCn1c(-c2cc(N3CCN(C)CC3)cnc2C(C)OC)c2c3cc(ccc31)-c1csc(n1)CC(NC(=O)C1CC1C)C(=O)N1CCCC(N1)C(=O)OCC(C)(C)C2 was tested. Which pIC50 [1] did it give?
The pIC50 was 8.83.

And the pIC50 [2]?
The pIC50 was 9.02.

What about the pIC50 [3] of the same compound?
The pIC50 was greater than 9.02.

And the pIC50 [4]?
The pIC50 was greater than 9.02.

What about the pIC50 [5] of the same compound?
The pIC50 was greater than 9.02.

And the pIC50 [6]?
Its pIC50 is greater than 9.02.

And the viability, T/C (second compound 0.000949 µM, first compound 0.000949 µM)?
Its viability, T/C is 68.4%.

What about the viability, T/C (second compound 0.000949 µM, first compound 0.003 µM) of the same compound?
Its viability, T/C is 21.8%.

What about the viability, T/C (second compound 0.000949 µM, first compound 0.00949 µM) of the same compound?
Its viability, T/C is 4.84%.

What about the viability, T/C (second compound 0.000949 µM, first compound 0.03 µM) of the same compound?
Its viability, T/C is 2.16%.

And the viability, T/C (second compound 0.000949 µM, first compound 0.0949 µM)?
The viability, T/C was 1.13%.

And the viability, T/C (second compound 0.000949 µM, first compound 0.3 µM)?
The viability, T/C was 0.96%.

And the viability, T/C (second compound 0.003 µM, first compound 0.000949 µM)?
The viability, T/C was 50.8%.

And the viability, T/C (second compound 0.003 µM, first compound 0.003 µM)?
The viability, T/C was 20.9%.

And the viability, T/C (second compound 0.003 µM, first compound 0.00949 µM)?
The viability, T/C was 5.17%.

What about the viability, T/C (second compound 0.003 µM, first compound 0.03 µM) of the same compound?
Its viability, T/C is 1.82%.

What about the viability, T/C (second compound 0.003 µM, first compound 0.0949 µM) of the same compound?
Its viability, T/C is 1.45%.

What about the viability, T/C (second compound 0.003 µM, first compound 0.3 µM) of the same compound?
Its viability, T/C is 1.05%.

And the viability, T/C (second compound 0.00949 µM, first compound 0.000949 µM)?
The viability, T/C was 38%.

And the viability, T/C (second compound 0.00949 µM, first compound 0.003 µM)?
Its viability, T/C is 17.9%.

And the viability, T/C (second compound 0.00949 µM, first compound 0.00949 µM)?
Its viability, T/C is 5.27%.

What about the viability, T/C (second compound 0.00949 µM, first compound 0.03 µM) of the same compound?
Its viability, T/C is 2.03%.

What about the viability, T/C (second compound 0.00949 µM, first compound 0.0949 µM) of the same compound?
Its viability, T/C is 2.15%.

And the viability, T/C (second compound 0.00949 µM, first compound 0.3 µM)?
Its viability, T/C is 0.92%.

What about the viability, T/C (second compound 0.03 µM, first compound 0.000949 µM) of the same compound?
The viability, T/C was 18.9%.

And the viability, T/C (second compound 0.03 µM, first compound 0.003 µM)?
Its viability, T/C is 15.3%.

What about the viability, T/C (second compound 0.03 µM, first compound 0.00949 µM) of the same compound?
Its viability, T/C is 5.86%.

And the viability, T/C (second compound 0.03 µM, first compound 0.03 µM)?
The viability, T/C was 2.53%.

And the viability, T/C (second compound 0.03 µM, first compound 0.0949 µM)?
The viability, T/C was 1.38%.

And the viability, T/C (second compound 0.03 µM, first compound 0.3 µM)?
The viability, T/C was 0.97%.

What about the viability, T/C (second compound 0.0949 µM, first compound 0.000949 µM) of the same compound?
Its viability, T/C is 14.2%.

What about the viability, T/C (second compound 0.0949 µM, first compound 0.003 µM) of the same compound?
Its viability, T/C is 13.4%.

And the viability, T/C (second compound 0.0949 µM, first compound 0.00949 µM)?
The viability, T/C was 5.71%.

What about the viability, T/C (second compound 0.0949 µM, first compound 0.03 µM) of the same compound?
Its viability, T/C is 2.6%.

And the viability, T/C (second compound 0.0949 µM, first compound 0.0949 µM)?
The viability, T/C was 1.4%.

What about the viability, T/C (second compound 0.0949 µM, first compound 0.3 µM) of the same compound?
Its viability, T/C is 1.46%.

And the viability, T/C (second compound 0.3 µM, first compound 0.000949 µM)?
The viability, T/C was 13.5%.

And the viability, T/C (second compound 0.3 µM, first compound 0.003 µM)?
The viability, T/C was 11.7%.

And the viability, T/C (second compound 0.3 µM, first compound 0.00949 µM)?
Its viability, T/C is 5.29%.

What about the viability, T/C (second compound 0.3 µM, first compound 0.03 µM) of the same compound?
The viability, T/C was 2.41%.

And the viability, T/C (second compound 0.3 µM, first compound 0.0949 µM)?
Its viability, T/C is 1.96%.

And the viability, T/C (second compound 0.3 µM, first compound 0.3 µM)?
The viability, T/C was 0.79%.

What does the source list for C#Cc1c(F)ccc2cc(O)cc(-c3ncc4c(N5CC6CCC(C5)N6)nc(OCC56CCCN5CC(F)C6)nc4c3F)c12 (stereo unspecified)?
viability, T/C (compound 0.0316 µM): 104% [middle of 8 runs]; viability, T/C (compound 0.1 µM): 106% [middle of 8 runs]; viability, T/C (compound 0.316 µM): 106% [middle of 8 runs]; viability, T/C (compound 1 µM): 101% [middle of 8 runs]; viability, T/C (compound 3.16 µM): 85.1% [middle of 8 runs]; viability, T/C (compound 10 µM): 59.7% [middle of 8 runs]; pIC50 (compound alone, run of 09/09/2024): < 5.00 and 5.06

What does the source list for CCC(CC)c1cc(NC2CCC(N)C2)n2nccc2n1 (stereo unspecified) + CCn1c(-c2cccnc2C(C)OC)c2c3cc(ccc31)N1CCOC(CC(NC(=O)C(C(C)C)N(C)C(=O)C3(F)CCN(C(=O)C#CC(C)(C)N(C)C)CC3)C(=O)N3CCCC(N3)C(=O)OCC(C)(C)C2)C1?
pIC50 [1]: 5.99; pIC50 [2]: 6.12; pIC50 [3]: 5.98; pIC50 [4]: 5.97; pIC50 [5]: 6.11; pIC50 [6]: 6.05; viability, T/C (second compound 0.000949 µM, first compound 0.0316 µM): 70.7%; viability, T/C (second compound 0.000949 µM, first compound 0.1 µM): 66.5%; viability, T/C (second compound 0.000949 µM, first compound 0.316 µM): 73.8%; viability, T/C (second compound 0.000949 µM, first compound 1 µM): 50.8%; viability, T/C (second compound 0.000949 µM, first compound 3.16 µM): 1.84%; viability, T/C (second compound 0.000949 µM, first compound 10 µM): 0.99%; viability, T/C (second compound 0.003 µM, first compound 0.0316 µM): 70.5%; viability, T/C (second compound 0.003 µM, first compound 0.1 µM): 87%; viability, T/C (second compound 0.003 µM, first compound 0.316 µM): 67.8%; viability, T/C (second compound 0.003 µM, first compound 1 µM): 44.1%; viability, T/C (second compound 0.003 µM, first compound 3.16 µM): 1.8%; viability, T/C (second compound 0.003 µM, first compound 10 µM): 0.91%; viability, T/C (second compound 0.00949 µM, first compound 0.0316 µM): 73.5%; viability, T/C (second compound 0.00949 µM, first compound 0.1 µM): 73.7%; viability, T/C (second compound 0.00949 µM, first compound 0.316 µM): 78.1%; viability, T/C (second compound 0.00949 µM, first compound 1 µM): 51.9%; viability, T/C (second compound 0.00949 µM, first compound 3.16 µM): 3.01%; viability, T/C (second compound 0.00949 µM, first compound 10 µM): 1.66%; viability, T/C (second compound 0.03 µM, first compound 0.0316 µM): 78.4%; viability, T/C (second compound 0.03 µM, first compound 0.1 µM): 82.8%; viability, T/C (second compound 0.03 µM, first compound 0.316 µM): 71.9%; viability, T/C (second compound 0.03 µM, first compound 1 µM): 53.5%; viability, T/C (second compound 0.03 µM, first compound 3.16 µM): 1.5%; viability, T/C (second compound 0.03 µM, first compound 10 µM): 1.09%; viability, T/C (second compound 0.0949 µM, first compound 0.0316 µM): 74.6%; viability, T/C (second compound 0.0949 µM, first compound 0.1 µM): 67.4%; viability, T/C (second compound 0.0949 µM, first compound 0.316 µM): 65.7%; viability, T/C (second compound 0.0949 µM, first compound 1 µM): 44.8%; viability, T/C (second compound 0.0949 µM, first compound 3.16 µM): 1.32%; viability, T/C (second compound 0.0949 µM, first compound 10 µM): 0.88%; viability, T/C (second compound 0.3 µM, first compound 0.0316 µM): 77.3%; viability, T/C (second compound 0.3 µM, first compound 0.1 µM): 67.2%; viability, T/C (second compound 0.3 µM, first compound 0.316 µM): 61.8%; viability, T/C (second compound 0.3 µM, first compound 1 µM): 48.4%; viability, T/C (second compound 0.3 µM, first compound 3.16 µM): 1.4%; viability, T/C (second compound 0.3 µM, first compound 10 µM): 0.57%
